How the values were obtained:
hP2X3 = target: T1, hP2X3 (Homo sapiens, UniProt P56373); experiment: Calcium uptake assay (P2X antagonist assay), P2X3 homomer; type: cell-based; conditions: calcium uptake assay, hP2X3; read-out: IC50 hP2X3 (nM), Ca Influx
T1 construct: expressed in transfected cells; host or cells: e.g. HEK293 or 1321N1
T1 sequence (P56373 1-397): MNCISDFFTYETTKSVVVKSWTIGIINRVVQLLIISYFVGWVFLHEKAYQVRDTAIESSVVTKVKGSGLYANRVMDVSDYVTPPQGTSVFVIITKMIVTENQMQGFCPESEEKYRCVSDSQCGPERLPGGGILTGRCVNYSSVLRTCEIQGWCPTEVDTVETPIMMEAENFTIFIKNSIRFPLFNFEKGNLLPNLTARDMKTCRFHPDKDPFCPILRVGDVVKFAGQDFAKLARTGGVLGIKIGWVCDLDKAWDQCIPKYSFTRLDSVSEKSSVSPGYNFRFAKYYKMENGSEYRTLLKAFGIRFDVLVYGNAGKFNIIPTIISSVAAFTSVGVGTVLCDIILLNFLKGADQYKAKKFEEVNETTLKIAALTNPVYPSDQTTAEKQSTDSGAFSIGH
Description: (§1) The human P2X2/3 chimera clone is created as described by Neelands et al, and then cloned into an expression vector as above. Receptors are expressed in cells (e.g., HEK293 or 1321N1 (obtained from the ECACC)) via transient transfection using standard lipid mediated transfection, or by creation of stable transfectants for each receptor. For expression of the P2X2/3 heteromeric receptor, the P2X3 expression vector is stably transfected into a cell line already stably expressing P2X2. P2X2/3 heteromer function is isolated using pharmacological methods. Cell lines are maintained in DMEM+5% Glutamax, the appropriate level of selective antibiotic, and 10% heat inactivated FBS.
(§2) Functional activity of compounds at the P2X receptor is determined by measuring their ability to inhibit agonist-induced calcium influx. Compounds are tested for antagonist activity against the P2X2/3 chimera, the P2X3 homomer, or the P2X2/3 heteromer. At the start of each screening day, the agonist EC50 is determined. Compound % inhibition or IC50s are subsequently determined using a predetermined agonist concentration (EC50-90 depending on cell line) as a stimulus. The agonists used are αβMeATP, ATP, or other ATP analogs. Compounds may be tested at concentrations ranging from 1 pM to 10 μM.
(§3) To test for antagonist activity, cells expressing the appropriate receptor are seeded onto 96 or 384 well plates 18-24 hours prior to assay. […] Plates are incubated at 37° C. and then equilibrated at room temperature. Antagonism of agonist-induced calcium influx is measured using a fluorescent imaging plate reader (e.g. FLIPR^TETRA, Molecular Devices, Sunnyvale, Calif.). The assay comprises two stages: a pre-treatment phase followed by a treatment phase. Compounds may be tested as follows: For the pre-treatment phase, 50 μL of 3× concentration of test compound in HBSS is added to cells containing […], of dye loading media to achieve a final concentration of 1× test compound. For the treatment phase, at a set interval after pre-treatment (1-30 minutes), 50 μL of 1× test compound plus 4× agonist solution is added, resulting in a final concentration of 1× compound and 1× agonist. […] Responses are measured as (peak fluorescence after agonist addition) minus (baseline fluorescence prior to treatment). Percent inhibition is calculated as follows:
(§4) [formula] IC50 values are determined by analyzing dose response data in a 4 parameter logistic fit using GraphPad Prizm.

hP2X2/3H = target: T2, hP2X2/3H (Homo sapiens, UniProt P56373+Q9UBL9); experiment: Calcium uptake assay (P2X antagonist assay), P2X2/3 heteromer; type: cell-based; conditions: calcium uptake assay, hP2X2/3H; read-out: IC50 hP2X2/3H (nM), Ca Influx
T2 construct: expressed in transfected cells; host or cells: e.g. HEK293 or 1321N1
T2 sequence (Q9UBL9 1-471): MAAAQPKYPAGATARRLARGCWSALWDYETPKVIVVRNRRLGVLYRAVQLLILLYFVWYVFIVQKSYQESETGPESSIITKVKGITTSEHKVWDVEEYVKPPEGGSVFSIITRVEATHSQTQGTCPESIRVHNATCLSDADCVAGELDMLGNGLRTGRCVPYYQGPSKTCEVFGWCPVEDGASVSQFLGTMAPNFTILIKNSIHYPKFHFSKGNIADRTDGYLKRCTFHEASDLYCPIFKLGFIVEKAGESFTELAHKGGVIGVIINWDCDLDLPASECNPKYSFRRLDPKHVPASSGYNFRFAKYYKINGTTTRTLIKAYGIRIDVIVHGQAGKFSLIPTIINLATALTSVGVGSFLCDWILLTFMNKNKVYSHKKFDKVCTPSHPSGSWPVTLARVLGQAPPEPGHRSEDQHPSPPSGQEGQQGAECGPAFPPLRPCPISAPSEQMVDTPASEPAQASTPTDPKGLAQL
T2 sequence (P56373 1-397): T1 sequence (P56373 1-397)
Description: as §1, §2, §3, §4

Row | IC50 (hP2X3) [nM] | IC50 (hP2X2/3H) [nM] | Structure (SMILES)
1 | < 100 | 100 to 500 | Cc1ccc(-c2cc(C(=O)N[C@@H](C)CO)cc(C(=O)N(C)CC(C)C)c2)cc1 [Compound 1, (S)—N-(1-Hydroxypropan-2-yl)-N-isobutyl-N,4′-dimethylbiphenyl-3,5-dicarboxamide]
2 | 501 to 1000 | > 1000 | Cc1ccc(-c2cc(C(=O)NCC(C)C)cc(C(=O)N[C@@H](C)CO)c2)cc1 [Compound 2, (S)—N3-(1-Hydroxypropan-2-yl)-N5-isobutyl-4′-methylbiphenyl-3,5-dicarboxamide]
3 | 100 to 500 | > 1000 | Cc1ccc(-c2cc(C(=O)N[C@@H](C)CO)cc(S(C)(=O)=O)c2)cc1 [Compound 3, (S)—N-(1-hydroxypronan-2-yl)-4′-methyl-5-(methylsulfonyl)biphenyl-3-carboxamide]
4 | > 1000 | > 1000 | Cc1ccc(-c2cc(C(=O)O)cc(C(=O)N[C@@H](C)CO)c2)cc1 [Compound 4]
5 | > 1000 | 501 to 1000 | Cc1ccc(-c2cc(C(=O)N[C@@H](C)CO)cc(C(=O)N[C@@H](C)CO)c2)cc1 [Compound 5]
6 | 100 to 500 | 501 to 1000 | CCOC(=O)c1cc(C(=O)N[C@@H](C)CO)cc(-c2ccc(C)cc2)c1 [Compound 6, (S)-Ethyl 5-(1-hydroxypropan-2-ylcarbamoyl)-4′-methylbiphenyl-3-carboxylate]
7 | 100 to 500 | 100 to 500 | COc1ccc([C@@H](CO)NC(=O)c2cc(C(=O)N(C)CC(C)C)cc(-c3ccc(C)cc3)c2)cn1 [Compound 7, (S)—N3-(2-hydroxy-1-(6-methoxypyridin-3-yl)ethyl)-N5-isobutyl-N5,4′-dimethyl-biphenyl-3,5-dicarboxamide]
8 | < 100 | 100 to 500 | Cc1ccc(-c2cc(C(=O)NC(C)c3cnccn3)cc(C(=O)N(C)CC(C)C)c2)cc1 (stereo not drawn) [Compound 8, N3-Isobutyl-N3,4′-dimethyl-N-5-(1-(pyrazin-2-yl)ethyl)biphenyl-3,5-dicarboxamide]
9 | < 100 | < 100 | Cc1ccc(-c2cc(C(=O)NCc3ccc(Cl)nc3)cc(C(=O)N(C)CC(C)C)c2)cc1 [Compound 9, N3-((6-Chloropyridin-3-yl)methyl)-N5-isobutyl-N5,4′-dimethylbiphenyl-3,5-dicarboxamide]
10 | 100 to 500 | 100 to 500 | Cc1ccc(-c2cc(C(=O)N[C@H](C)c3ccc(C(F)(F)F)nc3)cc(C(=O)N(C)CC(C)C)c2)cc1 [Compound 10, (R)—N3-Isobutyl-N3,4′-dimethyl-N5-(1-(6-(trifluoromethyl)pyridin-3-yl)ethyl)biphenyl-3,5-dicarboxamide]
11 | < 100 | 100 to 500 | Cc1ccc(-c2cc(C(=O)NCc3ccn4ccnc4c3)cc(C(=O)N(C)CC(C)C)c2)cc1 [Compound 11, N3-(Imidazo[1,2-a]pyridin-7-ylmethyl)-N5-isobutyl-N5,4′-dimethylbiphenyl-3,5-dicarboxamide]
12 | < 100 | < 100 | Cc1ccc(-c2cc(C(=O)NCc3cnc(C)nc3)cc(C(=O)N(C)CC(C)C)c2)cc1 [Compound 12, N3-Isobutyl-N3,4′-dimethyl-N5-((2-methylpyrimidin-5-yl)methyl)biphenyl-3,5-dicarboxamide]
13 | 100 to 500 | 100 to 500 | Cc1ccc(-c2cc(C(=O)N[C@H](CCO)c3ccc(C)nc3)cc(C(=O)N(C)CC(C)C)c2)cc1 [Compound 13, (R)—N3-(3-Hydroxy-1-(6-methylpyridin-3-yl)propyl)-N5-isobutyl-N5,4′-dimethylbiphenyl-3,5-dicarboxamide]
14 | < 100 | < 100 | Cc1ccc(-c2cc(C(=O)N[C@H](C)c3cnc(C)nc3)cc(C(=O)N(C)CC(C)C)c2)cc1 [Compound 14, (R)—N3-Isobutyl-N3,4′-dimethyl-N5-(1-(2-methylpyrimidin-5-yl)ethyl)biphenyl-3,5-dicarboxamide]
15 | < 100 | < 100 | CCOC(=O)c1cc(C(=O)NCc2cnc(C)nc2)cc(-c2ccc(C)cc2)c1 [Compound 15, Ethyl 4′-methyl-5-((2-methylpyrimidin-5-yl)methylcarbamoyl)biphenyl-3-carboxylate]

— US8946439B2, “Amide compounds, compositions and uses thereof” (Evotec AG, priority 2008, dated 2015)
